Paper PMC10108276, “Siderophore‐Linked Ruthenium Catalysts for Targeted Allyl Ester Prodrug Activation within Bacterial Cells” (Chemistry (Weinheim an Der Bergstrasse, Germany), 2022)
≈ marks a conversion by molar mass, not a printed value. Where two headings read alike, the source gives them in different places.

Key:
HeLa = test: MTT-based proliferation assay, HeLa; format: cell-based, human; details: 48 h
Description: (§1) 7. Cytotoxicity against Mammalian Cells
(§2) 7.1. Cell viability assays for Moxi, C-Moxi and Ru-s4
(§3) Dulbecco’s Modified Eagle’s Medium (DMEM: [+] 4.5 g/L D-Glucose, L-Glutamine; [-]
(§4) Pyruvate), containing 10% fetal calf serum, 1% penicillin and streptomycin, was used
(§5) as growth medium for HeLa cells. DMEM ([+] 1 g/L D-Glucose; [+] Pyruvate),
(§6) containing 10% fetal calf serum, 1% penicillin and streptomycin, was respectively used
(§7) for GM5657 cells. HeLa and GM5657 cells were detached from the wells with trypsin
(§8) and EDTA, harvested by centrifugation and resuspended in the respective cell culture
(§9) medium. The assays were carried out on 96 well plates with a density of 6000 cells
(§10) per well. After 24 h of incubation at 37°C and 10% CO2, the cells were treated with
(§11) Moxi, C-Moxi and Ru-s4 (constant DMSO concentrations of 0.5%) with a final volume
(§12) of 200 µL per well. For a negative control, one series of cells were only treated with
(§13) 0.5% DMSO, and for a positive control, one series was treated with cisplatin. After 48
(§14) h of incubation, 50 µL PBS containing MTT (2.5 mg/mL) was added. The cells were
(§15) incubated for an additional 2 h. Afterwards, the medium was removed, and 200 µL of
(§16) DMSO were added. The formazan crystal absorption was measured at 550 nm, using
(§17) a reference wavelength of 650 nm. Each assay was carried out in triplicates (three
(§18) independent experiments) for each cell line, Table S3.

GM5657 = test: MTT-based proliferation assay, GM5657; format: cell-based, human; details: 48 h
Description: as §1, §2, §3, §4, §5, §6, §7, §8, §9, §10, §11, §12, §13, §14, §15, §16, §17, §18

E. coli K12 (BW25113) [1] = test: prodrug uptake assay (incubation, HPLC of extracellular and wash samples); format: cell-based, Escherichia coli
[2] = solubility as observed in the assays; format: physicochemical
E. coli K12 (BW25113) [3] = test: antibacterial activity (dosage-response, 24 h) under iron-limited, micro-aerobic conditions
E. coli K12 (BW25113) [4] = test: catalyst-prodrug co-addition growth assay (24 h) with siderophore controls; details: without C‐moxi, MHII + 200 μM bpy, 2 % O2, 24 h
E. coli K12 (BW25113) [5] = test: effect of catalyst-siderophore conjugates on bacterial growth (dose-response, 24 h); details: at 10 μM, MHII + 200 μM bpy, 2 % O2, 24 h
E. coli K12 (BW25113) [6] = test: prodrug incubation experiment: C-moxi preloading, washing, catalyst addition (18 h); details: substrate at upper nontoxic concentration
[7] = Mean of three runs, tested range 0.05–100 μM
[8] = C-moxi 10 µM, relative to 'no cell' controls
[9] = MHII + 200 μM bpy, 2 % O2, 37 °C, 24 h

SMILES | IC50 (HeLa; [7]) | IC50 (HeLa; Run 2) | IC50 (HeLa; Run 3) | IC50 (GM5657; [7]) | IC50 (GM5657; Run 2) | IC50 (GM5657; Run 3) | effect on growth relative to the no addition control, substance alone (E. coli K12 (BW25113) [4]) | other results
N.N.[Cl][Pt][Cl] [Cisplatin, cisplatin] | 17 µM | 20.6 µM | 17.8 µM | 18.8 µM | 18 µM | 18.9 µM | – | IC50 (HeLa; Run 1): 12.6 µM; IC50 (GM5657; Run 1): 19.5 µM
C=CCOC(=O)c1cn(C2CC2)c2c(OC)c(N3C[C@@H]4CCCN[C@@H]4C3)c(F)cc2c1=O [C‐moxi] | > 100 µM | > 100 µM | > 100 µM | > 100 µM | > 100 µM | > 100 µM | – | Remainder (E. coli K12 (BW25113) [1]; C-moxi 10 µM, 100 % minus extracellular and wash): 16.4%; Uptake (E. coli K12 (BW25113) [1]; C-moxi 10 µM, incubation OD600 0.1): 3.31 nmol OD600-1; Extracellular (E. coli K12 (BW25113) [1]; [8]): 82.7%; Wash (E. coli K12 (BW25113) [1]; [8]): 0.9%; internalisation (bacterial uptake) of prodrug (E. coli K12 (BW25113) [1]; C‐moxi added at 10 μM, 15 min at 37 °C, exponential growth, iron-limited, micro-aerobic): 16%; IC50 (HeLa; Homo sapiens, Run 1): > 100 µM; IC50 (GM5657; Homo sapiens, Run 1): > 100 µM; solubility ([2]; bacterial growth assay medium, read-out: solubility limit): 500 µM (≈ 221 µg/mL); concentrations at which no antibacterial activity is seen (E. coli K12 (BW25113) [3]; [9]): < 10 µM; times less toxic than the parent antibacterial Moxi (E. coli K12 (BW25113) [3]; bacterial assays, E. coli K12): ~300
CC(=O)N(O)CCCCCNC(=O)CCC(=O)N(O)CCCCCNC(=O)CCC(=O)N(O)CCCCCN [DFO, desferrioxamine B] | – | – | – | – | – | – | does not improve growth | –
O=C(O)c1cccc(O)c1O [DHB, 2,3‐dihydroxybenzoic acid] | – | – | – | – | – | – | improve growth | –
[Cl][Fe]([Cl])[Cl] [FeCl3] | – | – | – | – | – | – | – | change of overall growth compared to no addition (E. coli K12 (BW25113) [5]): tenfold
COc1c(N2C[C@@H]3CCCN[C@@H]3C2)c(F)cc2c(=O)c(C(=O)O)cn(C3CC3)c12 [Moxi, moxifloxacin] | > 100 µM | > 100 µM | > 100 µM | > 100 µM | > 100 µM | > 100 µM | – | IC50 (HeLa; Homo sapiens, Run 1): > 100 µM; IC50 (GM5657; Homo sapiens, Run 1): > 100 µM; difference between C‐moxi and DMSO incubations (in words) (E. coli K12 (BW25113) [6]): no significant difference between incubations; concentrations at which no antibacterial activity is observed (E. coli K12 (BW25113) [3]; [9]): < 10 nM
C=CCOC(=O)N1CCC[C@H]2CN(c3c(F)cc4c(=O)c(C(=O)O)cn(C5CC5)c4c3OC)C[C@H]21 [N‐moxi] | – | – | – | – | – | – | – | solubility ([2]; 10 % DMSO in aqueous MOPS buffer, HPLC kinetics): poor solubility; concentrations at which no antibacterial activity is seen (E. coli K12 (BW25113) [3]; [9]): < 10 µM
O=C(NCCCC[C@H](NC(=O)c1cccc(O)c1O)C(=O)O)c1cccc(O)c1O [azotochelin] | – | – | – | – | – | – | improve growth | –
O=C(O)CC(O)(CC(=O)O)C(=O)O [citrate] | – | – | – | – | – | – | improve growth | –
